Drawing on patent publication US20230062100A1, “SUBSTITUTED AMINOQUINOLONES AS DGKALPHA INHIBITORS FOR IMMUNE ACTIVATION” (Bayer Aktiengesellschaft, priority 2019, published 2023), this text covers IC50 for 28 molecules.

Sequence of DGKα (P23743 with tags, fused parts or gaps): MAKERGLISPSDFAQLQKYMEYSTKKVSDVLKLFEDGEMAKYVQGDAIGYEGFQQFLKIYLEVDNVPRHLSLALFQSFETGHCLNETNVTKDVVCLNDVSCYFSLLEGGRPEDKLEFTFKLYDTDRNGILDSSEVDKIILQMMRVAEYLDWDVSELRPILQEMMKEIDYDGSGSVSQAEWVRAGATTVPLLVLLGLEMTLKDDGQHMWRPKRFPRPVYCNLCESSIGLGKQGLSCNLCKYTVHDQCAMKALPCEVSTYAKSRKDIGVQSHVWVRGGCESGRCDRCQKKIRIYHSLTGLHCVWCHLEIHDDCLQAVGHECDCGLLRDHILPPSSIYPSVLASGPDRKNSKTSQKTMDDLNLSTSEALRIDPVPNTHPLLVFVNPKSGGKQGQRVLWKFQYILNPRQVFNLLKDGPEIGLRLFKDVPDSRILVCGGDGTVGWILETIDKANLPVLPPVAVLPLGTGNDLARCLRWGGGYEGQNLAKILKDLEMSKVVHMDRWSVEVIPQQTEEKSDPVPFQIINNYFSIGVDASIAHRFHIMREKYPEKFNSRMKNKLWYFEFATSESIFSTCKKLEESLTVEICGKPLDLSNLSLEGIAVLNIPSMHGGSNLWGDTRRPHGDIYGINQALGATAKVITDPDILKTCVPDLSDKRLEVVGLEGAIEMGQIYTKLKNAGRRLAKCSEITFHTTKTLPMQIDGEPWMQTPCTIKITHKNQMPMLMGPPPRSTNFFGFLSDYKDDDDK

In this assay the target is DGKα (Homo sapiens, UniProt P23743). Nature of the assay: Human DGKα kinase activity inhibition assay (ADP-Glo). The assay is classed as biochemical. The note with it: in vitro human DGKα kinase activity inhibition assay. As for the experimental part:
Human DGKα inhibitory activity of compounds of the present invention was quantified employing the human DGKα kinase activity assay as described in the following paragraphs. In essence, the enzyme activity was measured by quantification of the adenosine-di-phosphate (ADP) generated as a co-product of the enzyme reaction via the “ADP-Glo™ Kinase Assay” kit from the company Promega. This detection system works as follows: In a first step the ATP not consumed in the kinase reaction is quantitatively converted to cAMP employing an adenylate cyclase (“ADP-Glo-reagent”), then the adenylate cyclase is stopped and the ADP generated in the kinase reaction converted to ATP, which subsequently generates in a luciferase-based reaction a glow-luminescence signal (“Kinase Detection Reagent”). C-terminally FLAG-tagged, recombinant full-length human DGKα (expressed in baculovirus infected insect cells, purified using anti-Flag pulldown and size exclusion chromatography as described below, DGKα_hu_1) was used as enzyme. As substrate for the kinase 1,2-dioleoyl-sn-glycerol, reconstituted in octyl-β-D-glucopyranoside micelles, was used. For the preparation of the micelles, 1 volume of a 16.1 mM solution of 1,2-dioleoyl-sn-glycerol (Avanti, Cat. #O8001-25G) in chloroform was slowly evaporated using a nitrogen stream. Subsequently, 22.55 volumes of a 510 mM solution of octyl-β-D-glucopyranoside (Sigma-Aldrich, Cat. #O8001-10G) in 50 mM MOPS buffer (pH 7.4) were added, and the mixture was sonicated in an ultrasonic bath for 20 s. Then 35 volumes of 50 mM MOPS buffer (pH 7.4) were added to yield a solution of 0.28 mM 1,2 dioleoyl-sn-glycerol and 200 mM octyl-β-D-glucopyranoside, which was aliquoted, flash-frozen in liquid nitrogen, and stored at −20° C. until use. For each experiment, a fresh aliquot was quickly thawed and diluted 24-fold with aqueous assay buffer (described below) containing 95.7 μM adenosine triphosphate (Promega) to yield a 1.67-fold concentrated substrate solution. For the assay 50 nl of a 100-fold concentrated solution of the test compound in dimethyl sulfoxide (DMSO, Sigma) was pipetted into either a white 1536-well or a white low-volume 384-well microtiter plate (both Greiner Bio-One, Frickenhausen, Germany). […] The concentration of DGK a was adjusted depending of the activity of the enzyme lot and was chosen appropriate to have the assay in the linear range, a typical concentration is about 0.1 nM. The reaction was stopped by the addition of 2.5 μl of “ADP-Glo-reagent” (1 to 1.5 diluted with water) and the resulting mixture was incubated at 22° C. for 1 h to convert the ATP not consumed in the kinase reaction completely to cAMP. […] The amount of emitted light was taken as a measure for the amount of ADP generated and thereby for the activity of the DGKα.
The molecule `Cc1ccc2c(N3CCC(Oc4ccccc4)CC3)c(C#N)c(=O)n(C)c2c1` [Example 88, 1,7-dimethyl-2-oxo-4-(4-phenoxypiperidin-1-yl)-1,2-dihydroquinoline-3-carbonitrile] showed an IC50 of 5.8 nM.

As for `Cn1c(=O)c(C#N)c(N2CCC(OCc3ccc(F)cc3)CC2)c2ccccc21` [Example 110, 4-{4-[(4-fluorophenyl)methoxy]piperidin-1-yl}-1-methyl-2-oxo-1,2-dihydroquinoline-3-carbonitrile], the IC50 came to 5.3 nM.

On to `COCCOc1ccc2c(N3CCC(Oc4ccc(OC(F)(F)F)cc4)CC3)c(C#N)c(=O)n(C)c2c1` [Example 81, 7-(2-methoxyethoxy)-1-methyl-2-oxo-4-{4-[4-(trifluoromethoxy)phenoxy]piperidin-1-yl}-1,2-dihydroquinoline-3-carbonitrile], for which the IC50 was 3 nM.

Molecule `Cn1c(=O)c(C#N)c(N2CCC(Oc3ccc(OC(F)(F)F)cc3)CC2)c2cc(F)ccc21` [Example 166, 6-fluoro-1-methyl-2-oxo-4-{4-[4-(trifluoromethoxy)phenoxy]piperidin-1-yl}-1,2-dihydroquinoline-3-carbonitrile] displayed an IC50 of 0.97 nM.

`Cn1c(=O)c(C#N)c(N2CCC(COc3cccc(Cl)c3)CC2)c2ccccc21` [Example 119, 4-{4-[(3-chlorophenoxy)methyl]piperidin-1-yl}-1-methyl-2-oxo-1,2-dihydroquinoline-3-carbonitrile] displayed an IC50 of 34 nM.

`COc1ccc2c(N3CCC(Oc4ccc(C(F)(F)F)cc4)CC3)c(C#N)c(=O)n(C)c2c1` [Example 66, 7-methoxy-1-methyl-2-oxo-4-{4-[4-(trifluoromethyl)phenoxy]piperidin-1-yl}-1,2-dihydroquinoline-3-carbonitrile] yielded an IC50 of 14 nM.

`Cc1ccc2c(c1)c(N1CCC(Oc3ccccc3Cl)CC1)c(C(N)=O)c(=O)n2C` [Example 163, 4-[4-(2-chlorophenoxy)piperidin-1-yl]-1,6-dimethyl-2-oxo-1,2-dihydroquinoline-3-carboxamide] showed an IC50 of 59 nM.

`Cc1cccc(OC2CCN(c3c(C#N)c(=O)n(C)c4ccc(C)cc34)CC2)c1` [Example 149, 1,6-dimethyl-4-[4-(3-methylphenoxy)piperidin-1-yl]-2-oxo-1,2-dihydroquinoline-3-carbonitrile]: the IC50 was determined as 7.7 nM.

The molecule `Cn1c(=O)c(C#N)c(N2CCC(Oc3ccc(Cl)cc3)CC2)c2ccc(N3CCCC3=O)cc21` [Example 85, 4-[4-(4-chlorophenoxy)piperidin-1-yl]-1-methyl-2-oxo-7-(2-oxopyrrolidin-1-yl)-1,2-dihydroquinoline-3-carbonitrile] displayed an IC50 of 28 nM.

The molecule `Cn1c(=O)c(C#N)c(N2CCCC(Oc3ccc(OC(F)(F)F)cc3)CC2)c2ccccc21` (racemic) [Example 100, (rac)-1-methyl-2-oxo-4-{4-[4-(trifluoromethoxy)phenoxy]azepan-1-yl}-1,2-dihydroquinoline-3-carbonitrile] yielded an IC50 of 8.3 nM.

For `Cn1c(=O)c(C#N)c(N2CCC(Oc3ccc(N4CCCC4=O)cc3)CC2)c2ccccc21` [Example 18, 1-methyl-2-oxo-4-{4-[4-(2-oxopyrrolidin-1-yl)phenoxy]piperidin-1-yl}-1,2-dihydroquinoline-3-carbonitrile], half-maximal inhibition (IC50) required 55 nM.

In turn, `Cn1c(=O)c(C#N)c(N2CCCC(Oc3ccc(OC(F)(F)F)cc3)CC2)c2ccccc21` (single isomer, unassigned; enantiomer 1) [Example 101, 1-methyl-2-oxo-4-{4-[4-(trifluoromethoxy)phenoxy]azepan-1-yl}-1,2-dihydroquinoline-3-carbonitrile, enantiomer 1] returned a concentration for half-maximal inhibition (IC50) of 7.4 nM.

On to `CN1CCCN(c2ccc(OC3CCN(c4c(C#N)c(=O)n(C)c5ccccc45)CC3)cc2)C1=O` [Example 21, 1-methyl-4-{4-[4-(3-methyl-2-oxo-1,3-diazinan-1-yl)phenoxy]piperidin-1-yl}-2-oxo-1,2-dihydroquinoline-3-carbonitrile], for which 119 nM corresponded to half-maximal inhibition (IC50).

Turning to `Cn1c(=O)c(C(N)=O)c(N2CCC(Oc3ccc(Cl)cc3)CC2)c2ccccc21` [Example 50, 4-[4-(4-chlorophenoxy)piperidin-1-yl]-1-methyl-2-oxo-1,2-dihydroquinoline-3-carboxamide], half-maximal inhibition (IC50) was put at 3.1 nM.

Consider `Cn1c(=O)c(C#N)c(N2CCC(Sc3ccccc3)CC2)c2ccccc21` [Example 53, 1-methyl-2-oxo-4-[4-(phenylsulfanyl)piperidin-1-yl]-1,2-dihydroquinoline-3-carbonitrile], for which half-maximal inhibition (IC50) was put at 1.1 nM.

`Cn1c(=O)c(C(N)=O)c(N2CCC(Oc3ccc(OC(F)(F)F)cc3)CC2)c2ccc(N3CCCC3=O)cc21` [Example 96, 1-methyl-2-oxo-7-(2-oxopyrrolidin-1-yl)-4-{4-[4-(trifluoromethoxy)phenoxy]piperidin-1-yl}-1,2-dihydroquinoline-3-carboxamide]: the IC50 stood at 12 nM.

Take `Cc1ccc2c(c1)c(N1CCC(Sc3ccccc3)CC1)c(C#N)c(=O)n2C` [Example 142, 1,6-dimethyl-2-oxo-4-[4-(phenylsulfanyl)piperidin-1-yl]-1,2-dihydroquinoline-3-carbonitrile]: the 50% inhibitory concentration (IC50) is 2 nM.

As for `Cc1ccccc1COC1CCN(c2c(C#N)c(=O)n(C)c3ccccc23)CC1` [Example 114, 1-methyl-4-{4-[(2-methylphenyl)methoxy]piperidin-1-yl}-2-oxo-1,2-dihydroquinoline-3-carbonitrile], the IC50 worked out at 16 nM.

In turn, `Cn1c(=O)c(C#N)c(N2CCC(Oc3ccc(Cl)cc3)CC2)c2ccc(Br)cc21` [Example 57, 7-bromo-4-[4-(4-chlorophenoxy)piperidin-1-yl]-1-methyl-2-oxo-1,2-dihydroquinoline-3-carbonitrile] had an IC50 of 17 nM.

In the case of `COc1ccccc1COC1CCN(c2c(C#N)c(=O)n(C)c3ccccc23)CC1` [Example 117, 4-{4-[(2-methoxyphenyl)methoxy]piperidin-1-yl}-1-methyl-2-oxo-1,2-dihydroquinoline-3-carbonitrile], the IC50 turned out to be 6 nM.

With `CC(OC1CCN(c2c(C#N)c(=O)n(C)c3ccccc23)CC1)c1ccccc1` (racemic) [Example 112, (rac)-1-methyl-2-oxo-4-[4-(1-phenylethoxy)piperidin-1-yl]-1,2-dihydroquinoline-3-carbonitrile], the IC50 is 10 nM.

As for `Cn1c(=O)c(C#N)c(N2CCC(Oc3ccccc3Cl)CC2)c2ccccc21` [Example 16, 4-[4-(2-chlorophenoxy)piperidin-1-yl]-1-methyl-2-oxo-1,2-dihydroquinoline-3-carbonitrile], the IC50 is 33 nM.

As for `Cc1cc(Br)c2c(c1)c(N1CCC(Oc3cccc(Cl)c3)CC1)c(C#N)c(=O)n2C` [Example 169, 8-bromo-4-[4-(3-chlorophenoxy)piperidin-1-yl]-1,6-dimethyl-2-oxo-1,2-dihydroquinoline-3-carbonitrile], the IC50 is 2530 nM.

Take `Cn1c(=O)c(C#N)c(N2CCC(Oc3ccc(OC(F)(F)F)cc3)CC2)c2cccc(S(C)(=O)=O)c21` [Example 136, 8-(methanesulfonyl)-1-methyl-2-oxo-4-{4-[4-(trifluoromethoxy)phenoxy]piperidin-1-yl}-1,2-dihydroquinoline-3-carbonitrile]: the IC50 was 2.5 nM.

With `Cn1c(=O)c(C#N)c(N2CCC(Sc3ccccc3)CC2)c2cc(Br)ccc21` [Example 140, 6-bromo-1-methyl-2-oxo-4-[4-(phenylsulfanyl)piperidin-1-yl]-1,2-dihydroquinoline-3-carbonitrile], the IC50 was determined as 1.4 nM.

`COc1cc(C)ccc1OC1CCN(c2c(C#N)c(=O)n(C)c3ccc(C)cc23)CC1` [Example 153, 4-[4-(2-methoxy-4-methylphenoxy)piperidin-1-yl]-1,6-dimethyl-2-oxo-1,2-dihydroquinoline-3-carbonitrile] gave an IC50 of 10 nM.

Consider `COc1cccc(OC2CCN(c3c(C#N)c(=O)n(C)c4ccc(Br)cc34)CC2)c1` [Example 138, 6-bromo-4-[4-(3-methoxyphenoxy)piperidin-1-yl]-1-methyl-2-oxo-1,2-dihydroquinoline-3-carbonitrile], for which the IC50 turned out to be 1.5 nM.

`Cn1c(=O)c(C(N)=O)c(N2CCC(Oc3ccc(OC(F)(F)F)cc3)CC2)c2cccc(Cl)c21` [Example 164, 8-chloro-1-methyl-2-oxo-4-{4-[4-(trifluoromethoxy)phenoxy]piperidin-1-yl}-1,2-dihydroquinoline-3-carboxamide]: the IC50 is 37 nM.

What is called IC50 is the concentration at which inhibition is half-maximal.
